Data from publication PMC7044277 (Nature Communications, 2020).
“And” between values parts separate entries of the source, which are not always exact repeats. Identical values can stand only once.

What was measured:
Assay type in all cases: cell-based
320 non-olfactory GPCRs [1] = biological target: T1, 320 non-olfactory GPCRs (Homo sapiens, UniProt P29275)
T1 construct: expressed in transfected cells; host or cells: HTLA cells

320 non-olfactory GPCRs [2] = biological target: T2, 320 non-olfactory GPCRs (Homo sapiens, UniProt P30556)
T2 construct: expressed in transfected cells; host or cells: HTLA cells

320 non-olfactory GPCRs [3] = biological target: T3, 320 non-olfactory GPCRs (Homo sapiens, UniProt P35410); conditions: receptor MAS1L; replicate values, Fig_4g
T3 construct: expressed in transfected cells; host or cells: HTLA cells

320 non-olfactory GPCRs [4] = biological target: T4, 320 non-olfactory GPCRs (Homo sapiens, UniProt Q8NFJ6); conditions: receptor PK2; replicate values, Fig_4g
T4 construct: expressed in transfected cells; host or cells: HTLA cells
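Throughout, for Fold of Basal: compound tested at 1 µM final concentration.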
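Throughout, for GPCRome agonism screen response: fold over basal response of each receptor without drug.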

T1 sequence (P29275 whole entry): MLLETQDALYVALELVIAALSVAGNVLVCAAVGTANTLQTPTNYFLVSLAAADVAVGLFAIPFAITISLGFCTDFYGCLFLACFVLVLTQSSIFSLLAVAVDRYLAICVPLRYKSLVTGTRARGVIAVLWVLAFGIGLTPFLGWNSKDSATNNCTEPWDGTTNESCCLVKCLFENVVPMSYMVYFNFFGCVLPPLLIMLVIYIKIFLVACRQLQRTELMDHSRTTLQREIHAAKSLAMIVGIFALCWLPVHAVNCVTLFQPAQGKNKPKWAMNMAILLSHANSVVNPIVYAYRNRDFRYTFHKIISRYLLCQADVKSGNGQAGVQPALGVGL
T3 sequence (P35410 whole entry): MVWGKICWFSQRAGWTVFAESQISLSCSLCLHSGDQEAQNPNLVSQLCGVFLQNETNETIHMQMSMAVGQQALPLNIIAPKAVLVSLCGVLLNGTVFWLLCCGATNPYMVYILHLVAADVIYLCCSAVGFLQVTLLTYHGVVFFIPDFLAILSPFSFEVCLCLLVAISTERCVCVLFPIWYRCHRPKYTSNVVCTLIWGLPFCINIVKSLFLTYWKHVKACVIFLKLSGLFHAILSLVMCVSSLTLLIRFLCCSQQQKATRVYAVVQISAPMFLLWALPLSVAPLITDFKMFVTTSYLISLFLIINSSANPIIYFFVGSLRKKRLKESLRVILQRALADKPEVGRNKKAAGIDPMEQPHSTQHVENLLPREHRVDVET
T4 sequence (Q8NFJ6 whole entry): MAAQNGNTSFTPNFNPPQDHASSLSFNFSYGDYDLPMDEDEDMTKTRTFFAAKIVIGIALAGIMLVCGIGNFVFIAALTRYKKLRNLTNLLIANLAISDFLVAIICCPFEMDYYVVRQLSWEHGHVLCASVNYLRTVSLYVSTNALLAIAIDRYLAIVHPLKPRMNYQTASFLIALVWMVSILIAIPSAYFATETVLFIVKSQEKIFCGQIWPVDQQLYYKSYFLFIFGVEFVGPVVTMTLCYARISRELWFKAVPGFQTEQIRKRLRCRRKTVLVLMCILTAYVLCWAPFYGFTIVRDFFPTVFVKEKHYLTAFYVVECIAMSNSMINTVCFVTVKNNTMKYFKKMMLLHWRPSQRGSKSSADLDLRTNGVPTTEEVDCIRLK
T2 sequence (P30556 whole entry): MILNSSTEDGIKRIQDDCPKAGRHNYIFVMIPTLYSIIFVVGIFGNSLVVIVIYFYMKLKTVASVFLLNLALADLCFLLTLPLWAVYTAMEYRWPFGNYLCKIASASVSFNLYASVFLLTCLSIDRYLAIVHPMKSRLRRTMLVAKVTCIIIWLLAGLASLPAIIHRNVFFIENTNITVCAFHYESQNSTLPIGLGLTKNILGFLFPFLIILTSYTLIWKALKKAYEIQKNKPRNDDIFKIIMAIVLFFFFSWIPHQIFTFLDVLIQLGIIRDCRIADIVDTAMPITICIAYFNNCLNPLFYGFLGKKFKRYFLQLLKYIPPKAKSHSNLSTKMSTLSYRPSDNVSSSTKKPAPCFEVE

For `CCOc1cccc2cc(C(C)NCC3(O)CCCCC3)oc12` (stereo not shown) [O4LE6], the “Fold of Basal” value (320 non-olfactory GPCRs [1]) was 1.3919 and 1.763 and 1.526 and 2.198, the “Fold of Basal” value (320 non-olfactory GPCRs [2]) was 1.668 and 2.301 and 2.105 and 2.204 and the “GPCRome agonism screen response” value (320 non-olfactory GPCRs [3]) was 0.5688 and 0.6917 and 1.207 and 0.7272. For the same compound, the “GPCRome agonism screen response” value (320 non-olfactory GPCRs [4]) was 0.6601 and 1.45 and 1.515 and 1.156.
